Assay results taken from the supplement of paper PMC9663587.

Legend:
YKL-5-124 = compound: C=CC(=O)Nc1ccc(C(=O)Nc2[nH]nc3c2CN(C(=O)N[C@H](CN(C)C)c2ccccc2)C3(C)C)cc1 [YKL-5-124]; assay: increase in dead-cell fraction, 72 h; higher = more death;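 also: breast cancer cell lines in 384-well plates, stained with Hoechst plus LIVE/DEAD far red dye and imaged, cells above an LDR intensity threshold counted dead, Hoechst-negative corpses included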
BSJ-03-123 = compound: CC(=O)c1c(C)c2cnc(Nc3ccc(N4CCN(CCOCCOCCOCCNC(=O)COc5cccc6c5C(=O)N(C5CCC(=O)NC5=O)C6=O)CC4)cn3)nc2n(C2CCCC2)c1=O [BSJ-03-123]; assay: as above
[1] = compound: CC(=O)c1c(C)c2cnc(Nc3ccc(N4CCNCC4)cn3)nc2n(C2CCCC2)c1=O; assay: as above
[2] = compound: CCN1CCN(Cc2ccc(Nc3ncc(F)c(-c4cc(F)c5nc(C)n(C(C)C)c5c4)n3)nc2)CC1; assay: as above
Neratinib/HKI272 [3] = compound: T1, CCOc1cc2ncc(C#N)c(Nc3ccc(OCc4ccccn4)c(Cl)c3)c2cc1NC(=O)/C=C/CN(C)C [Neratinib/HKI272]; assay: as above
[4] = compound: CCc1cnn2c(NCc3ccc[n+]([O-])c3)cc(N3CCCC[C@H]3CCO)nc12; assay: as above
LEE011/Ribociclib = compound: CN(C)C(=O)c1cc2cnc(Nc3ccc(N4CCNCC4)cn3)nc2n1C1CCCC1 [LEE011/Ribociclib]; assay: as above
THZ531 = compound: CN(C)C/C=C/C(=O)Nc1ccc(C(=O)N2CCC[C@@H](Nc3ncc(Cl)c(-c4c[nH]c5ccccc45)n3)C2)cc1 [THZ531]; assay: as above
THZ1 = compound: CN(C)C/C=C/C(=O)Nc1ccc(C(=O)Nc2cccc(Nc3ncc(Cl)c(-c4c[nH]c5ccccc45)n3)c2)cc1 [THZ1]; assay: as above
Flavopiridol [5] = compound: T2, CN1CC[C@H](c2c(O)cc(O)c3c(=O)cc(-c4ccccc4Cl)oc23)[C@H](O)C1 [Flavopiridol]; assay: as above
Neratinib/HKI272 [6] = compound: T1, Neratinib/HKI272; assay: GR value, 72 h; higher = faster growth (1 = untreated, <0 = killing);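 also: breast cancer and non-malignant breast epithelial lines, nine half-log doses, viable cells counted by Hoechst and LIVE/DEAD dye imaging versus time-zero plates and DMSO controls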
Flavopiridol [7] = compound: T2, Flavopiridol; assay: as above

With HCC1806 the “increase in dead-cell fraction” value (YKL-5-124; 0.001 µM) was 0.0531, the “increase in dead-cell fraction” value (YKL-5-124; 0.003162 µM) was 0.0858 and the “increase in dead-cell fraction” value (YKL-5-124; 0.01 µM) was 0.134. The “increase in dead-cell fraction” value (YKL-5-124; 0.03162 µM) was 0.202, the “increase in dead-cell fraction” value (YKL-5-124; 0.1 µM) was 0.196 and the “increase in dead-cell fraction” value (YKL-5-124; 0.3162 µM) was 0.264. For the same cell line, the “increase in dead-cell fraction” value (YKL-5-124; 1 µM) was 0.331, the “increase in dead-cell fraction” value (YKL-5-124; 3.162 µM) was 0.322 and the “increase in dead-cell fraction” value (YKL-5-124; 10 µM) was 0.538. The “increase in dead-cell fraction” value (BSJ-03-123; 0.001 µM) was 0.0017, the “increase in dead-cell fraction” value (BSJ-03-123; 0.003162 µM) was 0.0008 and the “increase in dead-cell fraction” value (BSJ-03-123; 0.01 µM) was -0.0016. For the same cell line, the “increase in dead-cell fraction” value (BSJ-03-123; 0.03162 µM) was -0.0015, the “increase in dead-cell fraction” value (BSJ-03-123; 0.1 µM) was 0.0039 and the “increase in dead-cell fraction” value (BSJ-03-123; 0.3162 µM) was 0.0061. The “increase in dead-cell fraction” value (BSJ-03-123; 1 µM) was 0.0075, the “increase in dead-cell fraction” value (BSJ-03-123; 3.162 µM) was 0.0235 and the “increase in dead-cell fraction” value (BSJ-03-123; 10 µM) was 0.152. For the same cell line, the “increase in dead-cell fraction” value ([1]; 0.0003162 µM) was 0.0005, the “increase in dead-cell fraction” value ([1]; 0.001 µM) was 0.0026 and the “increase in dead-cell fraction” value ([1]; 0.003162 µM) was 0.0009. The “increase in dead-cell fraction” value ([1]; 0.01 µM) was -0.0004, the “increase in dead-cell fraction” value ([1]; 0.03162 µM) was 0.0094 and the “increase in dead-cell fraction” value ([1]; 0.1 µM) was 0.0238. The “increase in dead-cell fraction” value ([1]; 0.3162 µM) was 0.0157, the “increase in dead-cell fraction” value ([1]; 1 µM) was 0.0237 and the “increase in dead-cell fraction” value ([1]; 3.162 µM) was 0.0046. For the same cell line, the “increase in dead-cell fraction” value ([2]; 0.001 µM) was 0.0032, the “increase in dead-cell fraction” value ([2]; 0.003162 µM) was -0.005 and the “increase in dead-cell fraction” value ([2]; 0.01 µM) was 0.0052. The “increase in dead-cell fraction” value ([2]; 0.03162 µM) was 0.0175, the “increase in dead-cell fraction” value ([2]; 0.1 µM) was 0.0076 and the “increase in dead-cell fraction” value ([2]; 0.3162 µM) was 0.0172. The “increase in dead-cell fraction” value ([2]; 1 µM) was 0.043, the “increase in dead-cell fraction” value ([2]; 3.162 µM) was 0.154 and the “increase in dead-cell fraction” value ([2]; 10 µM) was 0.698. The “increase in dead-cell fraction” value (Neratinib/HKI272 [3]; 0.0003162 µM) was 0.0048, the “increase in dead-cell fraction” value (Neratinib/HKI272 [3]; 0.001 µM) was -0.0002 and the “increase in dead-cell fraction” value (Neratinib/HKI272 [3]; 0.003162 µM) was 0.0056. For the same cell line, the “increase in dead-cell fraction” value (Neratinib/HKI272 [3]; 0.01 µM) was 0.015, the “increase in dead-cell fraction” value (Neratinib/HKI272 [3]; 0.03162 µM) was 0.0267 and the “increase in dead-cell fraction” value (Neratinib/HKI272 [3]; 0.1 µM) was 0.0441. The “increase in dead-cell fraction” value (Neratinib/HKI272 [3]; 0.3162 µM) was 0.065, the “increase in dead-cell fraction” value (Neratinib/HKI272 [3]; 1 µM) was 0.0775 and the “increase in dead-cell fraction” value (Neratinib/HKI272 [3]; 3.162 µM) was 0.435. The “increase in dead-cell fraction” value ([4]; 0.0001 µM) was -0.0016, the “increase in dead-cell fraction” value ([4]; 0.0003162 µM) was -0.0077 and the “increase in dead-cell fraction” value ([4]; 0.001 µM) was -0.0005. For the same cell line, the “increase in dead-cell fraction” value ([4]; 0.003162 µM) was 0.0006, the “increase in dead-cell fraction” value ([4]; 0.01 µM) was 0.0355 and the “increase in dead-cell fraction” value ([4]; 0.03162 µM) was 0.585. The “increase in dead-cell fraction” value ([4]; 0.1 µM) was 0.742, the “increase in dead-cell fraction” value ([4]; 0.3162 µM) was 0.728 and the “increase in dead-cell fraction” value ([4]; 1 µM) was 0.713. For the same cell line, the “increase in dead-cell fraction” value (LEE011/Ribociclib; 0.001 µM) was 0.0002, the “increase in dead-cell fraction” value (LEE011/Ribociclib; 0.003162 µM) was -0.0001 and the “increase in dead-cell fraction” value (LEE011/Ribociclib; 0.01 µM) was 0.0014. The “increase in dead-cell fraction” value (LEE011/Ribociclib; 0.03162 µM) was -0.0047, the “increase in dead-cell fraction” value (LEE011/Ribociclib; 0.1 µM) was 0.0015 and the “increase in dead-cell fraction” value (LEE011/Ribociclib; 0.3162 µM) was 0.0032. The “increase in dead-cell fraction” value (LEE011/Ribociclib; 1 µM) was 0.0064, the “increase in dead-cell fraction” value (LEE011/Ribociclib; 3.162 µM) was 0.0046 and the “increase in dead-cell fraction” value (LEE011/Ribociclib; 10 µM) was 0.0171. For the same cell line, the “increase in dead-cell fraction” value (THZ531; 0.0001 µM) was 0.0006, the “increase in dead-cell fraction” value (THZ531; 0.0003162 µM) was 0.001 and the “increase in dead-cell fraction” value (THZ531; 0.001 µM) was 0.0004. The “increase in dead-cell fraction” value (THZ531; 0.003162 µM) was -0.0016, the “increase in dead-cell fraction” value (THZ531; 0.01 µM) was -0.0015 and the “increase in dead-cell fraction” value (THZ531; 0.03162 µM) was 0.0016. For the same cell line, the “increase in dead-cell fraction” value (THZ531; 0.1 µM) was 0.0014, the “increase in dead-cell fraction” value (THZ531; 0.3162 µM) was 0.0179 and the “increase in dead-cell fraction” value (THZ531; 1 µM) was 0.586. For the same cell line, the “increase in dead-cell fraction” value (THZ1; 0.0001 µM) was -0.0025, the “increase in dead-cell fraction” value (THZ1; 0.0003162 µM) was -0.0038 and the “increase in dead-cell fraction” value (THZ1; 0.001 µM) was -0.0025. The “increase in dead-cell fraction” value (THZ1; 0.003162 µM) was -0.0009, the “increase in dead-cell fraction” value (THZ1; 0.01 µM) was -0.0024 and the “increase in dead-cell fraction” value (THZ1; 0.03162 µM) was 0.0112. For the same cell line, the “increase in dead-cell fraction” value (THZ1; 0.1 µM) was 0.0478, the “increase in dead-cell fraction” value (THZ1; 0.3162 µM) was 0.271 and the “increase in dead-cell fraction” value (THZ1; 1 µM) was 0.766. For the same cell line, the “increase in dead-cell fraction” value (Flavopiridol [5]; 0.0001 µM) was -0.0011, the “increase in dead-cell fraction” value (Flavopiridol [5]; 0.0003162 µM) was -0.0029 and the “increase in dead-cell fraction” value (Flavopiridol [5]; 0.001 µM) was 0.003. For the same cell line, the “increase in dead-cell fraction” value (Flavopiridol [5]; 0.003162 µM) was -0.001, the “increase in dead-cell fraction” value (Flavopiridol [5]; 0.01 µM) was 0.0029 and the “increase in dead-cell fraction” value (Flavopiridol [5]; 0.03162 µM) was 0.005. The “increase in dead-cell fraction” value (Flavopiridol [5]; 0.1 µM) was 0.019, the “increase in dead-cell fraction” value (Flavopiridol [5]; 0.3162 µM) was 0.0572 and the “increase in dead-cell fraction” value (Flavopiridol [5]; 1 µM) was 0.71. For the same cell line, the GR value (Neratinib/HKI272 [6]; 0.0003162 µM) was 1.08 GR, the GR value (Neratinib/HKI272 [6]; 0.001 µM) was 1.06 GR and the GR value (Neratinib/HKI272 [6]; 0.003162 µM) was 1.04 GR. The GR value (Neratinib/HKI272 [6]; 0.01 µM) was 0.99 GR, the GR value (Neratinib/HKI272 [6]; 0.03162 µM) was 0.881 GR and the GR value (Neratinib/HKI272 [6]; 0.1 µM) was 0.811 GR. The GR value (Neratinib/HKI272 [6]; 0.3162 µM) was 0.675 GR, the GR value (Neratinib/HKI272 [6]; 1 µM) was 0.546 GR and the GR value (Neratinib/HKI272 [6]; 3.162 µM) was -0.0945 GR. For the same cell line, the GR value (Flavopiridol [7]; 0.0001 µM) was 0.956 GR, the GR value (Flavopiridol [7]; 0.0003162 µM) was 1.03 GR and the GR value (Flavopiridol [7]; 0.001 µM) was 1.04 GR. It also gave a GR value (Flavopiridol [7]; 0.003162 µM) of 0.878 GR, a GR value (Flavopiridol [7]; 0.01 µM) of 1.03 GR and a GR value (Flavopiridol [7]; 0.03162 µM) of 0.926 GR. For the same cell line, the GR value (Flavopiridol [7]; 0.1 µM) was 0.659 GR, the GR value (Flavopiridol [7]; 0.3162 µM) was 0.199 GR and the GR value (Flavopiridol [7]; 1 µM) was -0.565 GR.
